According to PMC3513970 (Oncogene, 2011):
“And” between values parts separate entries of the source, which are not always exact repeats. Identical values can stand only once.

Experiments:
[1] = system: K7M2 cells; assay: Cell migration assay for synergy; format: cell-based, murine; conditions: combination of NSC305787 and NSC668394
[2] = target: actin; assay: SPR binding to actin; conditions: read-out: KD for binding to actin; negative control; data not shown
[3] = target: T1, PKCΙ (Homo sapiens, UniProt P41743); assay: Biacore direct interaction with PKCΙ; conditions: read-out: KD for binding to PKCΙ, data not shown
T1 sequence (P41743 1-596): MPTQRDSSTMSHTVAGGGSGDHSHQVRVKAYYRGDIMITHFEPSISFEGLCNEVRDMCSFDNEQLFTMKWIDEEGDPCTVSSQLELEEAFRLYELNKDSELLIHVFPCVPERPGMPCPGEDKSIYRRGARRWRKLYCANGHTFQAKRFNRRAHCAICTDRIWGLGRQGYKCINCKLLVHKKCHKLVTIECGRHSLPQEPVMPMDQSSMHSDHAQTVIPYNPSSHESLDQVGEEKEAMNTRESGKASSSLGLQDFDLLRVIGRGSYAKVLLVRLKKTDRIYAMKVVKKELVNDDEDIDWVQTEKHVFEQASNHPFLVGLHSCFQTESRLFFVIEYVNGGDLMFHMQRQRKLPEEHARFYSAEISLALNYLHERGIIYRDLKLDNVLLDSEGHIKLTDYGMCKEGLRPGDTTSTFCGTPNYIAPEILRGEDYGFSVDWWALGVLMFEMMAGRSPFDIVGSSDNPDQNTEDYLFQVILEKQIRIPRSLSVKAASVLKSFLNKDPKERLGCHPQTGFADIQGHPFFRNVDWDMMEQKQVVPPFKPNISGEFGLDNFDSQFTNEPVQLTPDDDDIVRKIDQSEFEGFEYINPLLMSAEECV

[4] = system: Xenopus embryos; assay: Xenopus embryo development assay; format: in vivo
[5] = target: endogenous ezrin in K7M2 OS cells (Mus musculus, UniProt P26040); assay: Immunoprecipitation/immunoblotting of endogenous ezrin in K7M2 cells; format: cell-based, murine; conditions: 10 μM, 6 h
endogenous ezrin in K7M2 OS cells, sequence (P26040 whole entry): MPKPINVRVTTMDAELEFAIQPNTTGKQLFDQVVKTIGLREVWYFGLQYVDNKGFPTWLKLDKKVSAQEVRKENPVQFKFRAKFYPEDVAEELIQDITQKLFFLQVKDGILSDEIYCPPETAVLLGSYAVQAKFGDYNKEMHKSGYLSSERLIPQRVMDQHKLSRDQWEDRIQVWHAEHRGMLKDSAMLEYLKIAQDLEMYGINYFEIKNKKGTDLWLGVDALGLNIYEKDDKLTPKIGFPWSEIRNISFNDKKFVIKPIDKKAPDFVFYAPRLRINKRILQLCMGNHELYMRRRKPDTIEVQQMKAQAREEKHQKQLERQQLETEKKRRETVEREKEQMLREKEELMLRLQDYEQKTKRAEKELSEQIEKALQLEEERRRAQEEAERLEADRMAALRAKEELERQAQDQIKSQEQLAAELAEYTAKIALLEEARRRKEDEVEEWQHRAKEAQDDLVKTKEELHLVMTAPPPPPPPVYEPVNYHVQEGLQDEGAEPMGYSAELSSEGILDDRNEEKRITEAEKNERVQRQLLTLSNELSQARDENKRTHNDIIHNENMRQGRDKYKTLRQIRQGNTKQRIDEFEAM

[6] = target: PKCΙ phosphorylation of radixin (Homo sapiens, UniProt P35241); assay: In vitro kinase assay: PKCΙ phosphorylation of radixin; format: biochemical; conditions: read-out: IC50, PKCΙ phosphorylation of radixin
PKCΙ phosphorylation of radixin, sequence (P35241 whole entry): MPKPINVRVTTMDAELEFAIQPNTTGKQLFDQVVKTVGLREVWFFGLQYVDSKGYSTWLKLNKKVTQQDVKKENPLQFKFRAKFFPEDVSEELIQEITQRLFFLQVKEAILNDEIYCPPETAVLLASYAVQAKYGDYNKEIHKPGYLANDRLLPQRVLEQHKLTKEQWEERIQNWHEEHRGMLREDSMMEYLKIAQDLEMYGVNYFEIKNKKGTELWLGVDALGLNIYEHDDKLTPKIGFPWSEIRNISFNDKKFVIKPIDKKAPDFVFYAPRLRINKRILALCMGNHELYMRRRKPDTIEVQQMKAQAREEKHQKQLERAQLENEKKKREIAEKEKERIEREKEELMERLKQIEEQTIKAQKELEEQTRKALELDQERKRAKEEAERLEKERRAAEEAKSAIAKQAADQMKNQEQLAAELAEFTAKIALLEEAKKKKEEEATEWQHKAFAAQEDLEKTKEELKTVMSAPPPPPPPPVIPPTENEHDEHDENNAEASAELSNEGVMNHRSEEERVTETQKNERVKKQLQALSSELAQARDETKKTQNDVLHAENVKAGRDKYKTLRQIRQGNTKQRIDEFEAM

[7] = target: PKCΙ phosphorylation of moesin (Homo sapiens, UniProt P26038); assay: In vitro kinase assay: PKCΙ phosphorylation of moesin; format: biochemical; conditions: read-out: IC50, PKCΙ phosphorylation of moesin
PKCΙ phosphorylation of moesin, sequence (P26038 whole entry): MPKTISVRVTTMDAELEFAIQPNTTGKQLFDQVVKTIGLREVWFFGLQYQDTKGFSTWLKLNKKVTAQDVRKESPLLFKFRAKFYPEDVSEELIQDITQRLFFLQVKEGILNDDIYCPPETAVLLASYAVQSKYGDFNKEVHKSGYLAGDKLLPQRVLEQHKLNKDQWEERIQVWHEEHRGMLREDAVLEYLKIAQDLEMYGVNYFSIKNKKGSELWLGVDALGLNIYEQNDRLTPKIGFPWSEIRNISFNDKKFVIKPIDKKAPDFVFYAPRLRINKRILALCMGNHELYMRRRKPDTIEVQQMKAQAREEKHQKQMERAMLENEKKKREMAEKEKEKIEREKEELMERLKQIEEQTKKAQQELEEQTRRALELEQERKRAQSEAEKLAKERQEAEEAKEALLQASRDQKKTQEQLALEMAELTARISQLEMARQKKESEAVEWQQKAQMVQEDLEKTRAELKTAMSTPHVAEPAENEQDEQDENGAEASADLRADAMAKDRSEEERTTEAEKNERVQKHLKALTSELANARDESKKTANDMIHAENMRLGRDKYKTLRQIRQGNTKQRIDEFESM

[8] = system: K12 cells; assay: Invasion of HUVEC monolayer by K12 cells; format: cell-based, murine; conditions: 10 μM
[9] = system: K7M2 cells, K12 cells or HUVECs; assay: Cell viability assays; format: cell-based; conditions: 10 μM; K7M2, K12, HUVEC; data not shown
[10] = target: recombinant WT ezrin (Mus musculus, UniProt P26040); assay: SPR direct binding to immobilized recombinant WT ezrin
recombinant WT ezrin, sequence (P26040 whole entry): as the sequence (P26040 whole entry) above

[11] = system: K7M2 cells; assay: Invasion of HUVEC monolayer by K7M2 cells; format: cell-based, murine; conditions: 10 μM, 5 h, vs DMSO (1%)
[12] = mouse
[13] = system: K7M2 lung metastasis in BALB/c mice; assay: In vivo experimental lung metastasis model, K7M2 cells; set-up: species or system mouse
[14] = system: PKCΙ, α and γ; assay: Radioactive in vitro kinase profiling of PKC isoforms on non-specific substrate; format: biochemical; conditions: myelin basic protein substrate; maximum 100 μM
[15] = system: MNNG-HOS lung metastasis in SCID/Beige mice; assay: In vivo experimental lung metastasis model, MNNG-HOS cells; set-up: species or system mouse
[16] = system: zebrafish embryos; assay: Zebrafish embryo development assay
[17] = system: GFP-expressing K7M2 OS cells in lung slices; assay: Ex vivo mouse lung organ culture; format: cell-based; conditions: 10 μM, vs DMSO 1%

OC(c1cc(C23CC4CC(CC(C4)C2)C3)nc2c(Cl)cc(Cl)cc12)C1CCCCN1 (centres unmarked) [NSC305787]
synergy between both compounds in cellular migration [1]: do not show any synergy
Kd [2]: 91.4 µM
Kd [3]: 172 µM
Xenopus embryo phenotype at stage 12.5 ([4]; 10 μM): gastrulation defects
Xenopus embryo phenotype by stage 37 ([4]; 10 μM): delays in development and ventral defects
Xenopus embryo phenotype by stage 50 ([4]; 10 μM): short and bent tails and reduced eyes
Xenopus embryo phenotype at high concentration ([4]; 40 μM): severe gastrulation defects and embryonic death
T567 phosphorylation of endogenous ezrin [5]: inhibited
actin binding of endogenous ezrin [5]: inhibited
cellular ezrin levels [5]: without altering cellular ezrin levels
IC50 [6]: 55 µM
IC50 [7]: 9.4 µM
invasion by K12 cells on HUVEC monolayer [8]: no effect on invasion
cytotoxicity [9]: Neither compound was cytotoxic
binding kinetics on ezrin ([10]; comparison of the two compounds): bound to and dissociated faster from ezrin than NSC668394
Kd ([10]; read-out: KD for binding to ezrin, average of five independent experiments): 5.85 µM and ~10 µM
invasion by K7M2 cells on HUVEC monolayer [11]: inhibited invasion
in vivo tolerability [12]: very well tolerated in vivo without any obvious acute toxicity
number of GFP-expressing metastatic foci in lung tissues ([13]; K7M2-injected mice): significant decrease
overall survival vs vehicle group ([13]; K7M2, log-rank, P = 0.0337 (NSC305787), P = 0.0524 (NSC668394)): significantly different from that of the vehicle-treated group
phospho-ezrin levels in lung–liver–kidney–spleen–skin samples ([13]; treated vs control (DMSO) animals): did not observe any meaningful differences
inhibition of PKC activity (PKCΙ, α and γ) [14]: required higher concentration than that required to inhibit ezrin phosphorylation
median survival ([15]; MNNG-HOS tail vein, vehicle 50.5 days): 49 days
number of GFP-expressing metastatic foci in lung tissues ([15]; MNNG-HOS-injected mice): no differences
survival, control vs treatment groups ([15]; MNNG-HOS-injected mice): no difference in survival
zebrafish embryo phenotype ([16]; 10 μM): mimicked the ezrin MO phenotype
embryos with epiboly defects ([16]; 10 μM, 12 of 81 embryos): 15%
embryos with epiboly defects ([16]; 20 μM, 71 of 71 embryos): 100%
lung metastases growth of K7M2 cells in organ culture (GFP fluorescence) [17]: significantly inhibited
